# Measured values published in patent publication US4623649A, “Substituted β-carbolines, and use thereof as medicinal agents” (Schering Aktiengesellschaft, priority 1983, dated 1986).
# Columns and labels:
# benzodiazepine receptor = assay: in vivo reduction of specific binding of 3H flunitrazepam to the benzodiazepine receptor in living brain, mice; parameters: unit not given beside the values; settings: normally subcutaneous, 3H flunitrazepam i.v. after 15 minutes, sacrificed after another 20 minutes
# benzodiazepine receptors [1] = assay: in vitro displacement of 3H flunitrazepam (or 3H diazepam) from benzodiazepine receptors, rat cerebrum suspension; format: binding; settings: rat cerebral membrane suspension, 3H flunitrazepam 1.0 nM, 0° C., pH 7.1
# benzodiazepine receptors [2] = settings: footnote * Nature 294(1981)472; cited from earlier work
Compound,"ED50, reduction of specific binding of flunitrazepam to 50% of control (in vivo) (benzodiazepine receptor)","IC50, displacement of specific binding of 3H flunitrazepam (in vitro) (benzodiazepine receptors [1]) [ng/mL]","IC50, displacement of specific binding of 3H flunitrazepam (in vitro), entry footnoted Nature 294(1981)472 (benzodiazepine receptors [2]) [ng/mL]"
"6-(1- and 2-cyclohexen-4-yl)-4-methoxymethyl-3-(3-ethyl-1,2,4-oxadiazol-5-yl)-β-carboline",1.9,1.5,–
CCOC(=O)c1cc2c(cn1)[nH]c1ccc(C(C)C)cc12,–,0.9,–
CCOC(=O)c1ncc2[nH]c3ccc(C4CCCC(=O)C4)cc3c2c1C (stereo not drawn),–,0.6,–
CCOC(=O)c1ncc2[nH]c3ccc(C4CCCCC4)cc3c2c1C,–,12,–
"COC(=O)c1cc2c(cn1)[nH]c1ccccc12 [CO2 Me, H, H, H]",–,–,1.9
4-methoxymethyl-6-(1- and 2-cyclohexen-4-yl)-β-carboline-3-carboxylic acid ethyl ester,0.5,0.7,–
"CCOC(=O)c1ncc2[nH]c3ccc(C(C)(C)C)cc3c2c1C [CO2 Et, Me, H, C(CH3)3, 6-tert-butyl-4-methyl-β-carboline-3-carboxylic acid ethyl ester]",–,7.5,–
"CCOC(=O)c1ncc2[nH]c3cccc(Cc4ccccc4)c3c2c1COC [CO2 Et, CH2 OCH3, CH2C6 H5, H, 5-benzyl-4-methoxymethyl-β-carboline-3-carboxylic acid ethyl ester]",–,0.5,–
"CCOC(=O)c1ncc2[nH]c3ccc(CCc4ccccc4)cc3c2c1C [CO2 Et, Me, H, CH2CH2C6 H5, 6-phenethyl-4-methyl-β-carboline-3-carboxylic acid ethyl ester]",–,14,–
CCOC(=O)c1ncc2[nH]c3ccc(C4=CCCCCCC4)cc3c2c1C,–,19,–
